According to PubChem BioAssay AID1963960 (Molecular Pharmacology Branch, DTP, NCI, 2024):

Tested on: MDA-MB-468 spheroids with HUVEC/MSC, viability
Experiment: Anticancer human tumor MDA-MB-468 cell line growth inhibition [PI3K];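 further: spheroids exposed to agents for seven days before readout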;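 on viability, T/C: 100% = DMSO vehicle control viability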
Settings: for IC50: curve of first compound; for viability, T/C: stronger effect = lower value
How it was run: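 Stroma-containing spheroids: tumor line, pooled-donor HUVEC, hMSC. Treatments: targeted agents with PI3K inhibitors. Dosing: clinically relevant, half-log spacing, 10 microM ceiling without known Cmax. Read-out: cell viability.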

Question: Which results are given for `CNC(=O)c1ccc(N2C(=S)N(c3ccc(C#N)c(C(F)(F)F)c3)C(=O)C2(C)C)cc1F` + CC(Nc1ncnc2nc[nH]c12)c1cc2cccc(Cl)c2c(=O)n1-c1ccccc1?
Answer: IC50 (second compound 0.0316 µM): > 10 µM; IC50 (second compound 0.1 µM): > 10 µM; IC50 (second compound 0.316 µM): > 10 µM; IC50 (second compound 1 µM): > 10 µM; IC50 (second compound 3.16 µM): 7.73 µM; IC50 (second compound 10 µM): < 0.0316 µM; viability, T/C (second compound 0.0316 µM, first compound 0.0316 µM): 78.9%; viability, T/C (second compound 0.0316 µM, first compound 0.1 µM): 80%; viability, T/C (second compound 0.0316 µM, first compound 0.316 µM): 77.2%; viability, T/C (second compound 0.0316 µM, first compound 1 µM): 90.6%; viability, T/C (second compound 0.0316 µM, first compound 3.16 µM): 89.7%; viability, T/C (second compound 0.0316 µM, first compound 10 µM): 73.1%; viability, T/C (second compound 0.1 µM, first compound 0.0316 µM): 88%; viability, T/C (second compound 0.1 µM, first compound 0.1 µM): 79.8%; viability, T/C (second compound 0.1 µM, first compound 0.316 µM): 73.4%; viability, T/C (second compound 0.1 µM, first compound 1 µM): 91.3%; viability, T/C (second compound 0.1 µM, first compound 3.16 µM): 81.1%; viability, T/C (second compound 0.1 µM, first compound 10 µM): 63.4%; viability, T/C (second compound 0.316 µM, first compound 0.0316 µM): 72%; viability, T/C (second compound 0.316 µM, first compound 0.1 µM): 72.5%; viability, T/C (second compound 0.316 µM, first compound 0.316 µM): 71.5%; viability, T/C (second compound 0.316 µM, first compound 1 µM): 77%; viability, T/C (second compound 0.316 µM, first compound 3.16 µM): 70.7%; viability, T/C (second compound 0.316 µM, first compound 10 µM): 61.1%; viability, T/C (second compound 1 µM, first compound 0.0316 µM): 58.2%; viability, T/C (second compound 1 µM, first compound 0.1 µM): 64.5%; viability, T/C (second compound 1 µM, first compound 0.316 µM): 67.4%; viability, T/C (second compound 1 µM, first compound 1 µM): 75%; viability, T/C (second compound 1 µM, first compound 3.16 µM): 55.5%; viability, T/C (second compound 1 µM, first compound 10 µM): 56.3%; viability, T/C (second compound 3.16 µM, first compound 0.0316 µM): 52.6%; viability, T/C (second compound 3.16 µM, first compound 0.1 µM): 56.3%; viability, T/C (second compound 3.16 µM, first compound 0.316 µM): 53.4%; viability, T/C (second compound 3.16 µM, first compound 1 µM): 57.1%; viability, T/C (second compound 3.16 µM, first compound 3.16 µM): 56.8%; viability, T/C (second compound 3.16 µM, first compound 10 µM): 42.1%; viability, T/C (second compound 10 µM, first compound 0.0316 µM): 40.1%; viability, T/C (second compound 10 µM, first compound 0.1 µM): 35.8%; viability, T/C (second compound 10 µM, first compound 0.316 µM): 36.1%; viability, T/C (second compound 10 µM, first compound 1 µM): 38%; viability, T/C (second compound 10 µM, first compound 3.16 µM): 35.7%; viability, T/C (second compound 10 µM, first compound 10 µM): 26.9%

Question: Which results are given for `Cn1cnc2c(F)c(Nc3ccc(Br)cc3Cl)c(C(=O)NOCCO)cc21` + CC(Nc1ncnc2nc[nH]c12)c1cc2cccc(Cl)c2c(=O)n1-c1ccccc1?
Answer: IC50 (second compound 0.0316 µM): > 3 µM; IC50 (second compound 0.1 µM): > 3 µM; IC50 (second compound 0.316 µM): > 3 µM; IC50 (second compound 1 µM): > 3 µM; IC50 (second compound 3.16 µM): 1.96 µM; IC50 (second compound 10 µM): < 0.00949 µM; viability, T/C (second compound 0.0316 µM, first compound 0.00949 µM): 88.8%; viability, T/C (second compound 0.0316 µM, first compound 0.03 µM): 90%; viability, T/C (second compound 0.0316 µM, first compound 0.0949 µM): 82.5%; viability, T/C (second compound 0.0316 µM, first compound 0.3 µM): 92.8%; viability, T/C (second compound 0.0316 µM, first compound 0.949 µM): 81.8%; viability, T/C (second compound 0.0316 µM, first compound 3 µM): 57.5%; viability, T/C (second compound 0.1 µM, first compound 0.00949 µM): 77%; viability, T/C (second compound 0.1 µM, first compound 0.03 µM): 86.9%; viability, T/C (second compound 0.1 µM, first compound 0.0949 µM): 101%; viability, T/C (second compound 0.1 µM, first compound 0.3 µM): 89.1%; viability, T/C (second compound 0.1 µM, first compound 0.949 µM): 86.1%; viability, T/C (second compound 0.1 µM, first compound 3 µM): 58.4%; viability, T/C (second compound 0.316 µM, first compound 0.00949 µM): 85.2%; viability, T/C (second compound 0.316 µM, first compound 0.03 µM): 83.8%; viability, T/C (second compound 0.316 µM, first compound 0.0949 µM): 75.6%; viability, T/C (second compound 0.316 µM, first compound 0.3 µM): 92.5%; viability, T/C (second compound 0.316 µM, first compound 0.949 µM): 90.3%; viability, T/C (second compound 0.316 µM, first compound 3 µM): 60.7%; viability, T/C (second compound 1 µM, first compound 0.00949 µM): 63.4%; viability, T/C (second compound 1 µM, first compound 0.03 µM): 66.1%; viability, T/C (second compound 1 µM, first compound 0.0949 µM): 76%; viability, T/C (second compound 1 µM, first compound 0.3 µM): 73.9%; viability, T/C (second compound 1 µM, first compound 0.949 µM): 67.6%; viability, T/C (second compound 1 µM, first compound 3 µM): 58.8%; viability, T/C (second compound 3.16 µM, first compound 0.00949 µM): 58.2%; viability, T/C (second compound 3.16 µM, first compound 0.03 µM): 58.5%; viability, T/C (second compound 3.16 µM, first compound 0.0949 µM): 55.8%; viability, T/C (second compound 3.16 µM, first compound 0.3 µM): 54.3%; viability, T/C (second compound 3.16 µM, first compound 0.949 µM): 66%; viability, T/C (second compound 3.16 µM, first compound 3 µM): 37.2%; viability, T/C (second compound 10 µM, first compound 0.00949 µM): 43.3%; viability, T/C (second compound 10 µM, first compound 0.03 µM): 41.2%; viability, T/C (second compound 10 µM, first compound 0.0949 µM): 37.6%; viability, T/C (second compound 10 µM, first compound 0.3 µM): 35.6%; viability, T/C (second compound 10 µM, first compound 0.949 µM): 29.4%; viability, T/C (second compound 10 µM, first compound 3 µM): 16.4%
